Laboratory results reported in US11427574B2, “Compounds for treating Rac-GTPase mediated disorder” (Children's Medical Center Corporation, priority 2015, dated 2022).

What was measured:
[1] = system: 12 GPCRs; experiment: GPCR profiling, whole panel; type: binding; conditions: summary of Table 2, antagonist and agonist
Protocol: (§1) Compound 1 was tested for its efficacy in inhibiting activities of 40 kinases and binding with 12 GPCRs both as an antagonist and an agonist.

[2] = system: RAS; experiment: RAS activation pull down assay (Western blot); type: cell-based; conditions: Western Blot (FIG. 11b)
Source text: (§2) Compound 1 was further tested to evaluate its effect on RHOA and RAS activation.

[3] = system: SEM leukemic cell line; experiment: In vivo SEM leukemia model in NSG mice; conditions: 250 mg/Kg twice a day for 21 days
Protocol: Compound 1 was assayed for its pharmacokinetics and anti-leukemia activities in mice. Specifically, a SEM leukemic cell line was labeled with a vector encoding the mCherry tag and Luciferase. 500,000 labeled cells were injected into immunodeficient mice (NSG mice). After establishment of leukemia (as assessed by bioluminescent imaging), mice were treated with Compound 1 at a dose 250 mg/Kg or a vehicle for 21 days twice a day. During treatment, mice were imaged every other day and BLI recorded and analyzed. 2 hours after the last dose, animals were sacrificed and organs harvested for PK and PD analysis.
FIGS. 8b and 8c show the bioluminescence data obtained from the mice treated with Compound 1 and a vehicle when the mice were imaged in a supine position and a prone position, respectively.

[4] = target: T1, RHOA (Homo sapiens, UniProt P61586); experiment: RHOA activation pull down assay (Western blot); type: cell-based; conditions: Western Blot (FIG. 11a)
T1 construct: endogenous in cells
T1 sequence (P61586 whole entry): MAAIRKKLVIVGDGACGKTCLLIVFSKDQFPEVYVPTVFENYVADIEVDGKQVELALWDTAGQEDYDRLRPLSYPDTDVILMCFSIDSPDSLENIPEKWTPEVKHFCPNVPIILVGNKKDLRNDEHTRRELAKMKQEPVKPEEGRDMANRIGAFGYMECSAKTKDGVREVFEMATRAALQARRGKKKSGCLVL
Source text: as §2

[5] = target: MAPK9 (JNK2) (Homo sapiens, UniProt P45984); experiment: Kinase screening; type: biochemical
Protocol: as §1

[6] = target: CDC42 BPB (MRCKB) (Homo sapiens, UniProt Q9Y5S2); experiment: Kinase screening; type: biochemical
CDC42 BPB (MRCKB), sequence (Q9Y5S2 whole entry, species assumed): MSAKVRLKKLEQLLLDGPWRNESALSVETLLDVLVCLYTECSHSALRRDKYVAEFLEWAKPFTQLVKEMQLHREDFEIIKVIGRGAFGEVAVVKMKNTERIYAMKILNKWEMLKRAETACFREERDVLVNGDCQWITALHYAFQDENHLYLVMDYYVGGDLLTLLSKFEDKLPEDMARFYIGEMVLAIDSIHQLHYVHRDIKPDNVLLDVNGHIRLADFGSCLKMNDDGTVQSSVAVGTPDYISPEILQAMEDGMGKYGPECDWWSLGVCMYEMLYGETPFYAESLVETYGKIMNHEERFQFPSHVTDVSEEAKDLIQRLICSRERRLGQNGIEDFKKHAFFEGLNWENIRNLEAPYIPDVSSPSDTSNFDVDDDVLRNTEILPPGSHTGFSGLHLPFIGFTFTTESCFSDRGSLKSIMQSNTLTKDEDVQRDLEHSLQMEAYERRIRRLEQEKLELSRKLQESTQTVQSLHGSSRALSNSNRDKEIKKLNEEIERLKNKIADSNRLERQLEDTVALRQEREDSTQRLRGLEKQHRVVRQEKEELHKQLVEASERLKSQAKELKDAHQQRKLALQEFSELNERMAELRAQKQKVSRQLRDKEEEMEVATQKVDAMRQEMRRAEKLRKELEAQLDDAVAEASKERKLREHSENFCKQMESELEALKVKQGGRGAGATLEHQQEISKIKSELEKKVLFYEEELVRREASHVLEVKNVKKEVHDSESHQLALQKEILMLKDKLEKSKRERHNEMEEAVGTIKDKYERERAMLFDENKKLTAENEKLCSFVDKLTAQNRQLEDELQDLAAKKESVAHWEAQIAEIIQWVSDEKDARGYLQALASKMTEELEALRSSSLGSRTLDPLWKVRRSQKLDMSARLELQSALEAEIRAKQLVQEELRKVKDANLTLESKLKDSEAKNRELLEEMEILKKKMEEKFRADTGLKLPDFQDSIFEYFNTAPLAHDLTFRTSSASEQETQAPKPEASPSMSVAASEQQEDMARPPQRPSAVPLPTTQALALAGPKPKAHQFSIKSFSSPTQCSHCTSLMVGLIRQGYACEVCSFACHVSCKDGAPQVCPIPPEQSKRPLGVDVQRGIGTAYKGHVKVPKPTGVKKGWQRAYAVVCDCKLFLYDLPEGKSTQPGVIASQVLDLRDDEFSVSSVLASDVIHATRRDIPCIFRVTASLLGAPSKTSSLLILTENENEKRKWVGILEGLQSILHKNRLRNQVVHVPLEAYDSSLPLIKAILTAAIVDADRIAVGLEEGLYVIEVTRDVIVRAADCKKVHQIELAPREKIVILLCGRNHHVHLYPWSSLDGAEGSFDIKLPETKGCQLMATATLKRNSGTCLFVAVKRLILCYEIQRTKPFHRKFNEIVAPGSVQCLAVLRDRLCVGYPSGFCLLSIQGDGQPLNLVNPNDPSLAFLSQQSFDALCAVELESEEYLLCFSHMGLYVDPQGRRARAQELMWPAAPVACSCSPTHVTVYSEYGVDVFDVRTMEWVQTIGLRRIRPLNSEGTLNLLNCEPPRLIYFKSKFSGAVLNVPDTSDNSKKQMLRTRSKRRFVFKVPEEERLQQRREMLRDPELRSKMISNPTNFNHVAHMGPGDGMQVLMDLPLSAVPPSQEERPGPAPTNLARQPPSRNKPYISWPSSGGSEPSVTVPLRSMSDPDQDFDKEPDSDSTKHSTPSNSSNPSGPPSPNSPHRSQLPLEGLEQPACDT
Protocol: as §1

[7] = target: LIMK1 (Homo sapiens, UniProt P53667); experiment: Kinase screening; type: biochemical
Protocol: as §1

[8] = target: CDC42 BPA (MRCKA) (Homo sapiens, UniProt Q5VT25); experiment: Kinase screening; type: biochemical
Protocol: as §1

[9] = target: PAK4 (Homo sapiens, UniProt O96013); experiment: Kinase screening; type: biochemical
PAK4, sequence (O96013 whole entry, species assumed): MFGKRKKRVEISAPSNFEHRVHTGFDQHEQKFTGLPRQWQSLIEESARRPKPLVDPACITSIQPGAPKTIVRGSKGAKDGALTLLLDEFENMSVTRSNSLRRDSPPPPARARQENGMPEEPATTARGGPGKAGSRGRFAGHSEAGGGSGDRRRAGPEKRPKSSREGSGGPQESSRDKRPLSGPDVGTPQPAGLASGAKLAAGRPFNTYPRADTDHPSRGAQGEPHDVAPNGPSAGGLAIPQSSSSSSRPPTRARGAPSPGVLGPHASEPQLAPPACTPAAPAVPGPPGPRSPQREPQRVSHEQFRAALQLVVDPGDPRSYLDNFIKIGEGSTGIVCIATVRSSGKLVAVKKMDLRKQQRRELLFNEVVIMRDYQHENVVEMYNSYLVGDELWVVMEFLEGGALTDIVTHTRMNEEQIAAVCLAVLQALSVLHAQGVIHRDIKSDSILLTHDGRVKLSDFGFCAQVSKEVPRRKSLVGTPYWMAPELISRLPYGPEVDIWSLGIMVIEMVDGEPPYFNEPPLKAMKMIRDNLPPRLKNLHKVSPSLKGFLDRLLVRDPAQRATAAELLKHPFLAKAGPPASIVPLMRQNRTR
Protocol: as §1

[10] = target: SRC (Homo sapiens, UniProt P12931); experiment: Kinase screening; type: biochemical
SRC, sequence (P12931 whole entry, species assumed): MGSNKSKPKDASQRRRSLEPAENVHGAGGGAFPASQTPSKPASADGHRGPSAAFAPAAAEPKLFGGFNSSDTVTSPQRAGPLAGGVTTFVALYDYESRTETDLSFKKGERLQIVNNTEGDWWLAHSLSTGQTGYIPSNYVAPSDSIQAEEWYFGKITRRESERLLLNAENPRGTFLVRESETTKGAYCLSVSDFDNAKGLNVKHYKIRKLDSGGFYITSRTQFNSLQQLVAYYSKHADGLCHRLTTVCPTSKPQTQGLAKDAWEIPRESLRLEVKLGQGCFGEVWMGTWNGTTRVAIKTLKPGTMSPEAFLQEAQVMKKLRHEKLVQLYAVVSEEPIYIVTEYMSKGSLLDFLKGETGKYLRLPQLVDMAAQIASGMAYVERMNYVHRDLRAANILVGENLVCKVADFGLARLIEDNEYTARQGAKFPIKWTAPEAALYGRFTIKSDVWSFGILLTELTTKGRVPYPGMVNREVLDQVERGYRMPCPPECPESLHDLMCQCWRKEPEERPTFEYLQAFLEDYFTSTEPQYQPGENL
Protocol: as §1

[11] = target: MAP2K2 (MEK2) (Homo sapiens, UniProt P36507); experiment: Kinase screening; type: biochemical
MAP2K2 (MEK2), sequence (P36507 whole entry, species assumed): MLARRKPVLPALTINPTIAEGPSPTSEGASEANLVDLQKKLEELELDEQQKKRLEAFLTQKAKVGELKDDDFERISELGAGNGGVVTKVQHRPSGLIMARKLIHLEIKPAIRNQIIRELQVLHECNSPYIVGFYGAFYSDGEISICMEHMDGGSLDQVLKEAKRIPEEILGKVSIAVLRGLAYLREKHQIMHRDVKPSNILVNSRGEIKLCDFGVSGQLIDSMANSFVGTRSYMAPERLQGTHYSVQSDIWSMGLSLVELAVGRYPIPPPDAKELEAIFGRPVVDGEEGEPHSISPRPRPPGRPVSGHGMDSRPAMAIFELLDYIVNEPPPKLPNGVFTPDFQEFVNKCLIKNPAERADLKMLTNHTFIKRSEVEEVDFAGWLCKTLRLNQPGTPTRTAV
Protocol: as §1

[12] = target: CDK5/p25 (Homo sapiens, UniProt Q00535); experiment: Kinase screening; type: biochemical
Protocol: as §1

[13] = target: KIT (Homo sapiens, UniProt P10721); experiment: Kinase screening; type: biochemical
Protocol: as §1

[14] = target: MAPK8 (JNK1) (Homo sapiens, UniProt P45983); experiment: Kinase screening; type: biochemical
MAPK8 (JNK1), sequence (P45983 whole entry, species assumed): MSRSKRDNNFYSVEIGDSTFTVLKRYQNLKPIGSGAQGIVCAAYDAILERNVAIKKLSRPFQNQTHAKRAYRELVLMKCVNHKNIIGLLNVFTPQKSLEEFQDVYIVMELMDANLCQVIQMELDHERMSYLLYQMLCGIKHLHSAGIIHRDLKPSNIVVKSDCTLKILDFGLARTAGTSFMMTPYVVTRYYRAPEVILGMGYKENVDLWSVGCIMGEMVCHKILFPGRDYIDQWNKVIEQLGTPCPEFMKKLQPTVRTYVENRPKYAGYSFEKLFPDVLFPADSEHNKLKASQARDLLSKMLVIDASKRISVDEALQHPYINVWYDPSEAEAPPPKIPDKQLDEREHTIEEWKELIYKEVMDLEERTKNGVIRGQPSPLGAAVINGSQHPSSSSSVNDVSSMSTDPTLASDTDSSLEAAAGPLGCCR
Protocol: as §1

[15] = target: FRAP1 (mTOR) (Homo sapiens, UniProt P42345); experiment: Kinase screening; type: biochemical
Protocol: as §1

[16] = target: PAK1 (Homo sapiens, UniProt Q13153); experiment: Kinase screening; type: biochemical
Protocol: as §1

[17] = target: PIK3CA/PIK3R1 (p110 alpha/p85 alpha) (Homo sapiens, UniProt P42336); experiment: Kinase screening; type: biochemical
Protocol: as §1

[18] = target: PIK3C2A (PI3K-C2 alpha) (Homo sapiens, UniProt O00443); experiment: Kinase screening; type: biochemical
Protocol: as §1

[19] = target: PDGFRA (PDGFR alpha) (Homo sapiens, UniProt P16234); experiment: Kinase screening; type: biochemical
Protocol: as §1

[20] = target: PAK2 (PAK65) (Homo sapiens, UniProt Q13177); experiment: Kinase screening; type: biochemical
PAK2 (PAK65), sequence (Q13177 whole entry, species assumed): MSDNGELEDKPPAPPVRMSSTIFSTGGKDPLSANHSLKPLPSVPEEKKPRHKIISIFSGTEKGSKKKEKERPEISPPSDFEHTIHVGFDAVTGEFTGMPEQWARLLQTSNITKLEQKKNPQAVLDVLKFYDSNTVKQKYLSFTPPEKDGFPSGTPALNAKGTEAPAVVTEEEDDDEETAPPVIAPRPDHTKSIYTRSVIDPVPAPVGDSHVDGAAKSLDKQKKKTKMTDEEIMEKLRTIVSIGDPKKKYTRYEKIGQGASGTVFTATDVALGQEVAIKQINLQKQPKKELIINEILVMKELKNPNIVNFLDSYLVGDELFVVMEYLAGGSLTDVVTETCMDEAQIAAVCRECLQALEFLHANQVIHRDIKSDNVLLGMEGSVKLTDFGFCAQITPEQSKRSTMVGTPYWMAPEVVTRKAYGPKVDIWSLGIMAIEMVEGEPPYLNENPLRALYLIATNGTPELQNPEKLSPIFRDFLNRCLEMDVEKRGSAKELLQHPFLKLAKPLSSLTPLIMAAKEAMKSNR
Protocol: as §1

[21] = target: JAK2 (Homo sapiens, UniProt O60674); experiment: Kinase screening; type: biochemical
Protocol: as §1

[22] = target: MYLK (MLCK) (Homo sapiens, UniProt Q15746); experiment: Kinase screening; type: biochemical
Protocol: as §1

[23] = target: PIK3CD/PIK3R1 (p110 delta/p85 alpha) (Homo sapiens, UniProt O00329); experiment: Kinase screening; type: biochemical
Protocol: as §1

[24] = target: EPHB1 (Homo sapiens, UniProt P54762); experiment: Kinase screening; type: biochemical
Protocol: as §1

[25] = target: IGF1R (Homo sapiens, UniProt P08069); experiment: Kinase screening; type: biochemical
Protocol: as §1

[26] = target: SYK (Homo sapiens, UniProt P43405); experiment: Kinase screening; type: biochemical
Protocol: as §1

[27] = target: MAP3K2 (MEKK2) (Homo sapiens, UniProt Q9Y2U5); experiment: Kinase screening; type: biochemical
Protocol: as §1

[28] = target: LIMK2 (Homo sapiens, UniProt P53671); experiment: Kinase screening; type: biochemical
LIMK2, sequence (P53671 whole entry, species assumed): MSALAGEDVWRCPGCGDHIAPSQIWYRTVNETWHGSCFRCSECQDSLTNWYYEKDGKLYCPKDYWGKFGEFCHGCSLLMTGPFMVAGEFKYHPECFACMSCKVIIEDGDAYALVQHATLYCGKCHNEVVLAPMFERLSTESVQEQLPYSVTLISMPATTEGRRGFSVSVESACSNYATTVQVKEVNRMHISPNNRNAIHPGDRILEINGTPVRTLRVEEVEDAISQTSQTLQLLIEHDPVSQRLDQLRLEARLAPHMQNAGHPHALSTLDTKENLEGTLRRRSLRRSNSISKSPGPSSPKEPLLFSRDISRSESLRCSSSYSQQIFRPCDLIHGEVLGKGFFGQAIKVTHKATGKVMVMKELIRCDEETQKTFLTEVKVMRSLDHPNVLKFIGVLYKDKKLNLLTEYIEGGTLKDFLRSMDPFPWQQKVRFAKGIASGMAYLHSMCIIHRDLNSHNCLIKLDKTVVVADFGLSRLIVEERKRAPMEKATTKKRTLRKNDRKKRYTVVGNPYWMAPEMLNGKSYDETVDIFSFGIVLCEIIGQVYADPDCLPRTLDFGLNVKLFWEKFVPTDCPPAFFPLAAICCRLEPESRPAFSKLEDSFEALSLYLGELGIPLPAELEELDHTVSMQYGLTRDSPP
Protocol: as §1

[29] = system: P12-Ichikawa cells; experiment: Proliferation assay in P12 leukemia cells; type: cell-based; conditions: Homo sapiens, read-out: IC50, inhibition of proliferation
Protocol: Dose Dependent Inhibition of Proliferation The 100 compounds selected from the initial in silico screen were assayed for inhibition of proliferation in two leukemia cell lines, SEM and P12 by Cell Titer Glo. The cells for the proliferation assay were spun down and re-suspended. The cell suspension was then divided and the compound to be tested added in desired concentrations and subsequently plated. Following an incubation period, the Cell Titer Glo reagent (Promega CellTiter 96® Aqueous Non-Radioactive Cell Proliferation Assay) was added and allowed to incubate. The absorbance is subsequently measured at 490 nm using a plate reader. Each compound was analyzed for its effects on cell proliferation.
The lead compound, i.e. Compound 1, was analyzed for its effect on cell proliferation at various doses on three different leukemia cell lines: SEM, P12, and Loucy. In order to quantitate the percentage inhibition of cell proliferation, Cell Titer Glo analysis was completed as described in Example 2 above.
FIGS. 3a-3c show three graphs illustrating the dose dependent inhibition of proliferation of Compound 1 in SEM, P12, and Loucy cells as measured by MTS assay. […] Compound 1 was further analyzed for its effect on cell apoptosis and cell death using a flow based assay using Annexin V staining.

For `CCc1ccc(CN(C)C(=O)CCc2nnc(CCc3c[nH]c4ccccc34)o2)nc1` (racemic) [Compound 1], the “binding to the 12 GPCRs tested” value [1] was “no significant binding”, the RAS activation [2] was “no significant effect” and the “relative weight of the mice” value ([3]; vs vehicle group) was “nearly identical”. For the same compound, the “bioluminescence in the mice” value ([3]; imaged in supine or prone position, vs vehicle) was “significantly reduced”, the RHOA activation [4] was “no significant effect” and the inhibition percentage [5] was 10.9 percentage. The inhibition percentage [6] was 3.3 percentage, the inhibition percentage [7] was −1.1 percentage and the inhibition percentage [8] was 2.8 percentage. It also gave an inhibition percentage [9] of 6.4 percentage, an inhibition percentage [10] of 8.7 percentage and an inhibition percentage [11] of 13.3 percentage. The inhibition percentage [12] was 1.0 percentage, the inhibition percentage [13] was −4.2 percentage and the inhibition percentage [14] was 0.4 percentage. The inhibition percentage [15] was 0.9 percentage, the inhibition percentage [16] was 22.7 percentage and the inhibition percentage [17] was 11.0 percentage. It also gave an inhibition percentage [18] of −1.3 percentage, an inhibition percentage [19] of 15.1 percentage and an inhibition percentage [20] of −8.5 percentage. The inhibition percentage [21] was −11.6 percentage, the inhibition percentage [22] was 1.2 percentage and the inhibition percentage [23] was 9.0 percentage. For the same compound, the inhibition percentage [24] was 7.1 percentage, the inhibition percentage [25] was −7.4 percentage and the inhibition percentage [26] was 7.0 percentage. The inhibition percentage [27] was 5.9 percentage, the inhibition percentage [28] was 0.4 percentage and the IC50 [29] was 39.2 µM.
